Test results reported in US20190209472A1, “FORMULATIONS FOR DERMAL DELIVERY OF POLYMER CONJUGATES OF INDOLOCARBAZOLE COMPOUNDS WITH REDUCED EXPOSURE” (Sienna Biopharmaceuticals, Inc., priority 2017, published 2019).
Read-outs that look alike come from different tables or passages of the source.

Tested on: lesions of psoriasis vulgaris
Description: This was a Phase I, single-center, randomized, double-blind, placebo-controlled study in male and female patients with stable psoriasis vulgaris aged >18 and <71 years. Sixteen patients were enrolled in 2 treatment groups. […] Patients attended a screening visit within 21 days prior to Day 1. Patients were then admitted to the CPU in the afternoon of Day −1 and remained resident in the CPU until the morning of Day 8. Patients attended a follow-up visit 7 to 10 days after the last treatment administration on Day 7.
The ointment was applied by the CPU staff, using a spatula and finger cot.
Physicians Global Assessment (PGA) scores were assessed at screening, Day 1, Day 7 and at follow-up. Digital photographs of the application sites were also taken on admission to the CPU, Day 7 and at follow-up.

In the case of “(9S, 10R, 12R)-10-(3′-mPEG2000-1′,3′-oxazolidine-2′,4′-dione)-2,3,9,10,11,12-hexahydro-9-methyl-1-oxo-9,12-epoxy-1H-diindolo[1,2,3-fg:3′,2′,1′-k,l]pyrrolo[3,4-i][1,6] benzodiazocine] [CT327]”, the “PGA Scaling 2: MILD, FINE SCALE DOMINATES, patients (%)” value (shortened to “PGA Scaling 2: MILD … (%)”) (Plaque 2, DAY 1, N = 12) is reported as “(16.7%)”, the “PGA Scaling 3: MODERATE, COARSE SCALE PREDOMINATES, patients (%)” value (shortened to “PGA Scaling 3: MODERATE … (%)”) (Plaque 2, DAY 1, N = 12) is reported as “(8.3%)” and the “PGA Scaling 4: MARKED, THICK, NON-TENACIOUS SCALE DOMINATES, patients (%)” value (Plaque 2, DAY 1, N = 12) is reported as “(8.3%)”. The “Physician Static Global Score 2: MILD, patients (%)” value (Plaque 2, DAY 1, N = 12) was “(25.0%)”, the “Physician Static Global Score 3: MODERATE, patients (%)” value (Plaque 2, DAY 1, N = 12) was “(8.3%)” and the “PGA Erythma 2: LIGHT RED COLOURATION, patients (%)” value (Plaque 2, DAY 7, N = 12) was “(25.0%)”. The “PGA Erythma 3: MODERATE RED COLOURATION, patients (%)” value (Plaque 2, DAY 7, N = 12) was “(8.3%)”, the “PGA Induration 1: MINIMAL PLAQUE ELEVATION, =0.25 MM, patients (%)” value (Plaque 2, DAY 7, N = 12) was “(25.0%)” and the “PGA Induration 2: MILD PLAQUE ELEVATION, =0.5 MM, patients (%)” value (Plaque 2, DAY 7, N = 12) was “(8.3%)”. The “PGA Scaling 1: MINIMAL, OCCASIONAL FINE SCALE OVER LESS THAN 5% OF THE LESION, patients (%)” value (Plaque 2, DAY 7, N = 12) was “(16.7%)”, the “PGA Scaling 2: MILD … (%)” value (Plaque 2, DAY 7, N = 12) was “(16.7%)” and the “Physician Static Global Score 1: MINIMAL, patients (%)” value (Plaque 2, DAY 7, N = 12) was “(8.3%)”. The “Physician Static Global Score 2: MILD, patients (%)” value (Plaque 2, DAY 7, N = 12) was “(25.0%)”, the “PGA Erythma 2: LIGHT RED COLOURATION, patients (%)” value (Plaque 2, FOLLOW-UP, N = 12) was “(33.3%)” and the “PGA Induration 1: MINIMAL PLAQUE ELEVATION, =0.25 MM, patients (%)” value (Plaque 2, FOLLOW-UP, N = 12) was “(8.3%)”. The “PGA Induration 2: MILD PLAQUE ELEVATION, =0.5 MM, patients (%)” value (Plaque 2, FOLLOW-UP, N = 12) was “(25.0%)”, the “PGA Scaling 1: MINIMAL, OCCASIONAL FINE SCALE OVER LESS THAN 5% OF THE LESION, patients (%)” value (Plaque 2, FOLLOW-UP, N = 12) was “(8.3%)” and the “PGA Scaling 2: MILD … (%)” value (Plaque 2, FOLLOW-UP, N = 12) was “(25.0%)”. The “Physician Static Global Score 2: MILD, patients (%)” value (Plaque 2, FOLLOW-UP, N = 12) was “(33.3%)”, the “PGA Erythma 2: LIGHT RED COLOURATION, patients (%)” value (Plaque 2, SCREENING, N = 12) was “(33.3%)” and the “PGA Erythma 3: MODERATE RED COLOURATION, patients (%)” value (Plaque 2, SCREENING, N = 12) was “(25.0%)”. For the same substance, the “PGA Induration 1: MINIMAL PLAQUE ELEVATION, =0.25 MM, patients (%)” value (Plaque 2, SCREENING, N = 12) was “(8.3%)”, the “PGA Induration 2: MILD PLAQUE ELEVATION, =0.5 MM, patients (%)” value (Plaque 2, SCREENING, N = 12) was “(33.3%)” and the “PGA Induration 3: MODERATE PLAQUE ELEVATION, =0.75 MM, patients (%)” value (Plaque 2, SCREENING, N = 12) was “(8.3%)”. For the same substance, the “PGA Induration 4: MARKED PLAQUE ELEVATION, =1 MM, patients (%)” value (Plaque 2, SCREENING, N = 12) was “(8.3%)”, the “PGA Scaling 2: MILD … (%)” value (Plaque 2, SCREENING, N = 12) was “(16.7%)” and the “PGA Scaling 3: MODERATE … (%)” value (Plaque 2, SCREENING, N = 12) was “(33.3%)”. The “PGA Scaling 4: MARKED, THICK, NON-TENACIOUS SCALE DOMINATES, patients (%)” value (Plaque 2, SCREENING, N = 12) was “(8.3%)”, the “Physician Static Global Score 2: MILD, patients (%)” value (Plaque 2, SCREENING, N = 12) was “(33.3%)” and the “Physician Static Global Score 3: MODERATE, patients (%)” value (Plaque 2, SCREENING, N = 12) was “(16.7%)”. For the same substance, the “Physician Static Global Score 4: MARKED, patients (%)” value (Plaque 2, SCREENING, N = 12) was “(8.3%)”, the “PGA Erythma 2: LIGHT RED COLOURATION, patients (%)” value (Plaque 3, DAY 1, N = 12) was “(16.7%)” and the “PGA Induration 2: MILD PLAQUE ELEVATION, =0.5 MM, patients (%)” value (Plaque 3, DAY 1, N = 12) was “(8.3%)”. The “PGA Induration 3: MODERATE PLAQUE ELEVATION, =0.75 MM, patients (%)” value (Plaque 3, DAY 1, N = 12) was “(8.3%)”, the “PGA Scaling 2: MILD … (%)” value (Plaque 3, DAY 1, N = 12) was “(8.3%)” and the “PGA Scaling 4: MARKED, THICK, NON-TENACIOUS SCALE DOMINATES, patients (%)” value (Plaque 3, DAY 1, N = 12) was “(8.3%)”. For the same substance, the “Physician Static Global Score 2: MILD, patients (%)” value (Plaque 3, DAY 1, N = 12) was “(8.3%)”, the “Physician Static Global Score 3: MODERATE, patients (%)” value (Plaque 3, DAY 1, N = 12) was “(8.3%)” and the “PGA Erythma 2: LIGHT RED COLOURATION, patients (%)” value (Plaque 3, DAY 7, N = 12) was “(8.3%)”. The “PGA Erythma 3: MODERATE RED COLOURATION, patients (%)” value (Plaque 3, DAY 7, N = 12) was “(8.3%)”, the “PGA Induration 1: MINIMAL PLAQUE ELEVATION, =0.25 MM, patients (%)” value (Plaque 3, DAY 7, N = 12) was “(16.7%)” and the “PGA Scaling 2: MILD … (%)” value (Plaque 3, DAY 7, N = 12) was “(16.7%)”. The “Physician Static Global Score 2: MILD, patients (%)” value (Plaque 3, DAY 7, N = 12) was “(16.7%)”, the “PGA Erythma 2: LIGHT RED COLOURATION, patients (%)” value (Plaque 3, FOLLOW-UP, N = 12) was “(16.7%)” and the “PGA Induration 1: MINIMAL PLAQUE ELEVATION, =0.25 MM, patients (%)” value (Plaque 3, FOLLOW-UP, N = 12) was “(8.3%)”. For the same substance, the “PGA Induration 2: MILD PLAQUE ELEVATION, =0.5 MM, patients (%)” value (Plaque 3, FOLLOW-UP, N = 12) was “(8.3%)”, the “PGA Scaling 2: MILD … (%)” value (Plaque 3, FOLLOW-UP, N = 12) was “(16.7%)” and the “Physician Static Global Score 2: MILD, patients (%)” value (Plaque 3, FOLLOW-UP, N = 12) was “(16.7%)”. For the same substance, the “PGA Erythma 2: LIGHT RED COLOURATION, patients (%)” value (Plaque 3, SCREENING, N = 12) was “(8.3%)”, the “PGA Erythma 3: MODERATE RED COLOURATION, patients (%)” value (Plaque 3, SCREENING, N = 12) was “(16.7%)” and the “PGA Induration 2: MILD PLAQUE ELEVATION, =0.5 MM, patients (%)” value (Plaque 3, SCREENING, N = 12) was “(8.3%)”. The “PGA Induration 3: MODERATE PLAQUE ELEVATION, =0.75 MM, patients (%)” value (Plaque 3, SCREENING, N = 12) was “(8.3%)”, the “PGA Induration 4: MARKED PLAQUE ELEVATION, =1 MM, patients (%)” value (Plaque 3, SCREENING, N = 12) was “(8.3%)” and the “PGA Scaling 3: MODERATE … (%)” value (Plaque 3, SCREENING, N = 12) was “(16.7%)”. The “PGA Scaling 4: MARKED, THICK, NON-TENACIOUS SCALE DOMINATES, patients (%)” value (Plaque 3, SCREENING, N = 12) was “(8.3%)”, the “Physician Static Global Score 2: MILD, patients (%)” value (Plaque 3, SCREENING, N = 12) was “(8.3%)” and the “Physician Static Global Score 3: MODERATE, patients (%)” value (Plaque 3, SCREENING, N = 12) was “(8.3%)”. For the same substance, the “Physician Static Global Score 4: MARKED, patients (%)” value (Plaque 3, SCREENING, N = 12) was “(8.3%)”.
